Test results from ChEMBL document CHEMBL2062432, “Design and synthesis of novel DFG-out RAF/vascular endothelial growth factor receptor 2 (VEGFR2) inhibitors: 2. Synthesis and characterization of a novel imide-type prodrug for improving oral absorption” (Bioorg Med Chem, 2012).

Tests used:
[1] = Thermodynamic solubility of the compound in JP2 solution at pH 6.8 in presence of 20 mM bile acid; assay type: physicochemical; details: JP2 solution with 20 mM bile acid, read-out: Therm_solubility
[2] = Metabolic stability in human liver microsomes assessed as compound remaining at 30 uM after 60 mins by HPLC analysis; assay type: ADME, Microsome; details: read-out: Stability
Rhesus monkey [3] = test: Ratio of AUC (0 to 24 hrs) in monkey assessed as 2-chloro-3-(1-cyanocyclopropyl)-N-[5-({2-[(cyclopropylcarbonyl) amino][1,3]thiazolo[5,4-b]pyridin-5-yl}oxy)-2-fluorophenyl] benzamide level to AUC (0 to 24hrs) in monkey assessed as tert-butyl 5-(2-(cyclopropanecarboxamido)thiazolo[5,4-b]pyridin-5-yloxy)-2-fluorophenylcarbamate level; assay type: ADME, organism-based, Macaca mulatta; details: in vivo
[4] = Ratio of prodrug conversion assessed a 2-chloro-3-(1-cyanocyclopropyl)-N-[5-({2-[(cyclopropylcarbonyl) amino][1,3]thiazolo[5,4-b]pyridin-5-yl}oxy)-2-fluorophenyl] benzamide level to drug metabolism assessed as tert-butyl 5-(2-(cyclopropanecarboxamido)thiazolo[5,4-b]pyridin-5-yloxy)-2-fluorophenylcarbamate level in monkey liver microsomes; assay type: ADME, Macaca mulatta, Microsome; details: rhesus monkey
Canis familiaris [5] = organism: Canis familiaris; test: Ratio of AUC (0 to 24 hrs) in dog assessed as 2-chloro-3-(1-cyanocyclopropyl)-N-[5-({2-[(cyclopropylcarbonyl) amino][1,3]thiazolo[5,4-b]pyridin-5-yl}oxy)-2-fluorophenyl] benzamide level to AUC (0 to 24hrs) in dog assessed as tert-butyl 5-(2-(cyclopropanecarboxamido)thiazolo[5,4-b]pyridin-5-yloxy)-2-fluorophenylcarbamate level; assay type: ADME, organism-based, Canis lupus familiaris; details: in vivo
Mus musculus [6] = test: AUC (0 to 24 hrs) in mouse assessed as tert-butyl 5-(2-(cyclopropanecarboxamido)thiazolo[5,4-b]pyridin-5-yloxy)-2-fluorophenylcarbamate level at 32.3 mg/kg, po administered as single dose; assay type: ADME, organism-based, Plasma; design: time < 24 hr, dose 32.3 mg/kg, route oral; details: in vivo
Rattus norvegicus [7] = test: AUC (0 to 24 hrs) in nude rat assessed as tert-butyl 5-(2-(cyclopropanecarboxamido)thiazolo[5,4-b]pyridin-5-yloxy)-2-fluorophenylcarbamate level at 12.9 mg/kg, po administered as single dose; assay type: ADME, organism-based, Plasma; design: time < 24 hr, dose 12.9 mg/kg, route oral; details: in vivo
Mus musculus [8] = test: AUC (0 to 24 hrs) in mouse assessed as 2-chloro-3-(1-cyanocyclopropyl)-N-[5-({2-[(cyclopropylcarbonyl) amino][1,3]thiazolo[5,4-b]pyridin-5-yl}oxy)-2-fluorophenyl] benzamide level at 32.3 mg/kg, po administered as single dose; assay type: ADME, organism-based, Plasma; design: time < 24 hr, dose 32.3 mg/kg, route oral; details: in vivo
Mus musculus [9] = test: Inhibition of VEGFR2-mediated ERK1/2 phosphorylation in human A375 cells xenografted athymic nude F344/N Jcl-rnu/rnu […] at 129 mg/kg, po administered as single dose after 4 hrs by immunoblotting relative to vehicle-treated control; values are per cent of control; details: A-375, po
Mus musculus [10] = test: Inhibition of VEGFR2-mediated ERK1/2 phosphorylation in human A375 cells xenografted athymic nude F344/N Jcl-rnu/rnu […] at 12.9 mg/kg, po administered as single dose after 4 hrs by immunoblotting relative to vehicle-treated control; values are per cent of control; details: A-375, po
Mus musculus [11] = test: Inhibition of VEGFR2-mediated ERK1/2 phosphorylation in human A375 cells xenografted athymic nude F344/N Jcl-rnu/rnu […] at 32.3 mg/kg, po administered as single dose after 4 hrs by immunoblotting relative to vehicle-treated control; values are per cent of control; details: A-375, po
Liver [12] = test: Ratio of prodrug conversion assessed a 2-chloro-3-(1-cyanocyclopropyl)-N-[5-({2-[(cyclopropylcarbonyl) amino][1,3]thiazolo[5,4-b]pyridin-5-yl}oxy)-2-fluorophenyl] benzamide level to drug metabolism assessed as tert-butyl 5-(2-(cyclopropanecarboxamido)thiazolo[5,4-b]pyridin-5-yloxy)-2-fluorophenylcarbamate level in mouse liver microsomes; assay type: ADME, Microsome
Liver [13] = test: Ratio of prodrug conversion assessed a 2-chloro-3-(1-cyanocyclopropyl)-N-[5-({2-[(cyclopropylcarbonyl) amino][1,3]thiazolo[5,4-b]pyridin-5-yl}oxy)-2-fluorophenyl] benzamide level to drug metabolism assessed as tert-butyl 5-(2-(cyclopropanecarboxamido)thiazolo[5,4-b]pyridin-5-yloxy)-2-fluorophenylcarbamate level in dog liver microsomes; assay type: ADME, Canis lupus familiaris, Microsome
Liver microsomes [14] = test: Ratio of prodrug conversion assessed a 2-chloro-3-(1-cyanocyclopropyl)-N-[5-({2-[(cyclopropylcarbonyl) amino][1,3]thiazolo[5,4-b]pyridin-5-yl}oxy)-2-fluorophenyl] benzamide level to drug metabolism assessed as tert-butyl 5-(2-(cyclopropanecarboxamido)thiazolo[5,4-b]pyridin-5-yloxy)-2-fluorophenylcarbamate level in rat liver microsomes; assay type: ADME, Microsome
Rattus norvegicus [15] = test: AUC (0 to 24 hrs) in nude rat assessed as tert-butyl 5-(2-(cyclopropanecarboxamido)thiazolo[5,4-b]pyridin-5-yloxy)-2-fluorophenylcarbamate level at 64.6 mg/kg, po administered as single dose; assay type: ADME, organism-based, Plasma; design: time < 24 hr, dose 64.6 mg/kg, route oral; details: in vivo
Rattus norvegicus [16] = test: AUC (0 to 24 hrs) in nude rat assessed as 2-chloro-3-(1-cyanocyclopropyl)-N-[5-({2-[(cyclopropylcarbonyl) amino][1,3]thiazolo[5,4-b]pyridin-5-yl}oxy)-2-fluorophenyl] benzamide level at 64.6 mg/kg, po administered as single dose; assay type: ADME, organism-based, Plasma; design: time < 24 hr, dose 64.6 mg/kg, route oral; details: in vivo
Rattus norvegicus [17] = test: Ratio of AUC (0 to 24 hrs) assessed as 2-chloro-3-(1-cyanocyclopropyl)-N-[5-({2-[(cyclopropylcarbonyl) amino][1,3]thiazolo[5,4-b]pyridin-5-yl}oxy)-2-fluorophenyl] benzamide level to AUC (0 to 24hrs) assessed as tert-butyl 5-(2-(cyclopropanecarboxamido)thiazolo[5,4-b]pyridin-5-yloxy)-2-fluorophenylcarbamate level in nude rat at 12.9 mg/kg, po; assay type: ADME, organism-based; design: dose 12.9 mg/kg, route oral; details: in vivo
Rhesus monkey [18] = test: AUC (0 to 24 hrs) in monkey assessed as tert-butyl 5-(2-(cyclopropanecarboxamido)thiazolo[5,4-b]pyridin-5-yloxy)-2-fluorophenylcarbamate level at 32.3 mg/kg, po administered as single dose; assay type: ADME, organism-based, Macaca mulatta, Plasma; design: time < 24 hr, dose 32.3 mg/kg, route oral; details: in vivo
A-375 = test: Antitumor activity against human A375 cells xenografted in athymic nude F344/N jcl-rnu/rnu […] assessed as tumor regression at 129 mg/kg, po administered BID for 2 weeks measured on day 14 relative to control; assay type: functional
Rhesus monkey [19] = test: AUC (0 to 24 hrs) in monkey assessed as 2-chloro-3-(1-cyanocyclopropyl)-N-[5-({2-[(cyclopropylcarbonyl) amino][1,3]thiazolo[5,4-b]pyridin-5-yl}oxy)-2-fluorophenyl] benzamide level at 32.3 mg/kg, po administered as single dose; assay type: ADME, organism-based, Macaca mulatta, Plasma; design: time < 24 hr, dose 32.3 mg/kg, route oral; details: in vivo
Rattus norvegicus [20] = test: AUC (0 to 24 hrs) in nude rat assessed as tert-butyl 2-chloro-3-(1-cyanocyclopropyl)benzoyl(5-(2-(cyclopropanecarboxamido)thiazolo[5,4-b]pyridin-5-yloxy)-2-fluorophenyl)carbamate level at 64.6 mg/kg, po administered as single dose; assay type: ADME, organism-based, Plasma; design: time < 24 hr, dose 64.6 mg/kg, route oral; details: in vivo
Rattus norvegicus [21] = test: Ratio of AUC (0 to 24 hrs) assessed as 2-chloro-3-(1-cyanocyclopropyl)-N-[5-({2-[(cyclopropylcarbonyl) amino][1,3]thiazolo[5,4-b]pyridin-5-yl}oxy)-2-fluorophenyl] benzamide level to AUC (0 to 24hrs) assessed as tert-butyl 5-(2-(cyclopropanecarboxamido)thiazolo[5,4-b]pyridin-5-yloxy)-2-fluorophenylcarbamate level in nude rat at 64.6 mg/kg, po; assay type: ADME, organism-based; design: dose 64.6 mg/kg, route oral; details: in vivo
Mus musculus [22] = organism: Mus musculus; test: Ratio of AUC (0 to 24 hrs) in mouse assessed as 2-chloro-3-(1-cyanocyclopropyl)-N-[5-({2-[(cyclopropylcarbonyl) amino][1,3]thiazolo[5,4-b]pyridin-5-yl}oxy)-2-fluorophenyl] benzamide level to AUC (0 to 24hrs) in mouse assessed as tert-butyl 5-(2-(cyclopropanecarboxamido)thiazolo[5,4-b]pyridin-5-yloxy)-2-fluorophenylcarbamate level; assay type: ADME, organism-based; details: in vivo
Rattus norvegicus [23] = test: AUC (0 to 24 hrs) in nude rat assessed as tert-butyl 2-chloro-3-(1-cyanocyclopropyl)benzoyl(5-(2-(cyclopropanecarboxamido)thiazolo[5,4-b]pyridin-5-yloxy)-2-fluorophenyl)carbamate level at 12.9 mg/kg, po administered as single dose; assay type: ADME, organism-based, Plasma; design: time < 24 hr, dose 12.9 mg/kg, route oral; details: in vivo
Liver [24] = test: Prodrug conversion in dog liver microsomes assessed as 2-chloro-3-(1-cyanocyclopropyl)-N-[5-({2-[(cyclopropylcarbonyl) amino][1,3]thiazolo[5,4-b]pyridin-5-yl}oxy)-2-fluorophenyl] benzamide level at 10 umol/L after 2 hrs; assay type: ADME, Canis lupus familiaris, Microsome; details: 10 µM
Canis familiaris [25] = test: AUC (0 to 24 hrs) in dog assessed as tert-butyl 5-(2-(cyclopropanecarboxamido)thiazolo[5,4-b]pyridin-5-yloxy)-2-fluorophenylcarbamate level at 32.3 mg/kg, po administered as single dose; assay type: ADME, organism-based, Canis lupus familiaris, Plasma; design: time < 24 hr, dose 32.3 mg/kg, route oral; details: in vivo
Rhesus monkey [26] = test: AUC (0 to 24 hrs) in monkey assessed as tert-butyl 2-chloro-3-(1-cyanocyclopropyl)benzoyl(5-(2-(cyclopropanecarboxamido)thiazolo[5,4-b]pyridin-5-yloxy)-2-fluorophenyl)carbamate level at 32.3 mg/kg, po administered as single dose; assay type: ADME, organism-based, Macaca mulatta, Plasma; design: time < 24 hr, dose 32.3 mg/kg, route oral; details: in vivo
Rattus norvegicus [27] = test: AUC (0 to 24 hrs) in nude rat assessed as 2-chloro-3-(1-cyanocyclopropyl)-N-[5-({2-[(cyclopropylcarbonyl) amino][1,3]thiazolo[5,4-b]pyridin-5-yl}oxy)-2-fluorophenyl] benzamide level at 12.9 mg/kg, po administered as single dose; assay type: ADME, organism-based, Plasma; design: time < 24 hr, dose 12.9 mg/kg, route oral; details: in vivo
Liver microsomes [28] = test: Ratio of prodrug conversion assessed a 2-chloro-3-(1-cyanocyclopropyl)-N-[5-({2-[(cyclopropylcarbonyl) amino][1,3]thiazolo[5,4-b]pyridin-5-yl}oxy)-2-fluorophenyl] benzamide level to drug metabolism assessed as tert-butyl 5-(2-(cyclopropanecarboxamido)thiazolo[5,4-b]pyridin-5-yloxy)-2-fluorophenylcarbamate level in human liver microsomes; assay type: ADME, Microsome
Canis familiaris [29] = test: AUC (0 to 24 hrs) in dog assessed as 2-chloro-3-(1-cyanocyclopropyl)-N-[5-({2-[(cyclopropylcarbonyl) amino][1,3]thiazolo[5,4-b]pyridin-5-yl}oxy)-2-fluorophenyl] benzamide level at 32.3 mg/kg, po administered as single dose; assay type: ADME, organism-based, Canis lupus familiaris, Plasma; design: time < 24 hr, dose 32.3 mg/kg, route oral; details: in vivo
Canis familiaris [30] = test: AUC (0 to 24 hrs) in dog assessed as tert-butyl 2-chloro-3-(1-cyanocyclopropyl)benzoyl(5-(2-(cyclopropanecarboxamido)thiazolo[5,4-b]pyridin-5-yloxy)-2-fluorophenyl)carbamate level at 32.3 mg/kg, po administered as single dose; assay type: ADME, organism-based, Canis lupus familiaris, Plasma; design: time < 24 hr, dose 32.3 mg/kg, route oral; details: in vivo

SMILES: CC(C)(C)OC(=O)N(C(=O)c1cccc(C2(C#N)CC2)c1Cl)c1cc(Oc2ccc3nc(NC(=O)C4CC4)sc3n2)ccc1F.O
- solubility thermodynamic [1]: 49 µg/mL

SMILES: N#CC1(c2cccc(C(=O)N(C(=O)C3CC3)c3cc(Oc4ccc5nc(NC(=O)C6CC6)sc5n4)ccc3F)c2Cl)CC1
- solubility thermodynamic [1]: 3.2 µg/mL

SMILES: N#CC1(c2cccc(C(=O)Nc3cc(Oc4ccc5nc(NC(=O)C6CC6)sc5n4)ccc3F)c2Cl)CC1
- solubility thermodynamic [1]: 3.6 µg/mL
- remaining at 1 h, 30 µM [2]: 110%

SMILES: CCOC(=O)N(C(=O)c1cccc(C2(C#N)CC2)c1Cl)c1cc(Oc2ccc3nc(NC(=O)C4CC4)sc3n2)ccc1F
- solubility thermodynamic [1]: 0.79 µg/mL

SMILES: CC(=O)O.CC(C)(C)OC(=O)N(C(=O)c1cccc(C2(C#N)CC2)c1Cl)c1cc(Oc2ccc3nc(NC(=O)C4CC4)sc3n2)ccc1F
- Ratio AUC (Rhesus monkey [3]): 330
- Ratio [4]: 3
- Ratio AUC (Canis familiaris [5]): 40
- AUC (Mus musculus [6]): 500 ng·h/mL
- AUC (Rattus norvegicus [7]): 570 ng·h/mL
- AUC (Mus musculus [8]): 4900 ng·h/mL
- level, % of control at 129 mg/kg (Mus musculus [9]): 20.1%
- level, % of control at 12.9 mg/kg (Mus musculus [10]): 52.7%
- level, % of control at 32.3 mg/kg (Mus musculus [11]): 34.1%
- Ratio (Liver [12]): 19
- Ratio (Liver [13]): 3.3
- Ratio (Liver microsomes [14]): 0.76
- solubility thermodynamic [1]: 19 µg/mL
- AUC (Rattus norvegicus [15]): 1800 ng·h/mL
- AUC (Rattus norvegicus [16]): 4280 ng·h/mL
- Ratio AUC (Rattus norvegicus [17]): 2.4
- AUC (Rhesus monkey [18]): 30 ng·h/mL
- T/C (A-375): 6.4%
- AUC (Rhesus monkey [19]): 9900 ng·h/mL
- AUC (Rattus norvegicus [20]): 80 ng·h/mL
- Ratio AUC (Rattus norvegicus [21]): 2.4
- Ratio AUC (Mus musculus [22]): 9.8
- AUC (Rattus norvegicus [23]): 20 ng·h/mL
- Drug metabolism (Liver [24]): 2.3%
- AUC (Canis familiaris [25]): 630 ng·h/mL
- AUC (Rhesus monkey [26]): 530 ng·h/mL
- AUC (Rattus norvegicus [27]): 1390 ng·h/mL
- Ratio (Liver microsomes [28]): 152
- AUC (Canis familiaris [29]): 25330 ng·h/mL
- AUC (Canis familiaris [30]): 530 ng·h/mL
